Laboratory results from patent US12275731B2, “Azaindole inhibitors of wild-type and mutant forms of LRRK2” (DANA-FARBER CANCER INSTITUTE, INC., priority 2018, dated 2025).

Tests used:
Assay in all cases: KinomeScan profiling
Type in all cases: binding
EGFR(G719C) = EGFR(G719C) (Homo sapiens, UniProt P00533, G719C); details: read-out: % control
Procedure, shortened: (§1)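 Compounds were screened at 1 μM in DMSO across a 468-kinase KinomeScan panel. Binding was expressed as % control, scaled between a positive control (0%) and DMSO (100%) using luminescence signal. A value under 35% counted as active.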

HPK1 = HPK1 (Homo sapiens, UniProt Q92918); details: HPK1, 1 μM; read-out: % control
Procedure, shortened: as §1

MAP3K15 = target: T1, MAP3K15 (Homo sapiens, UniProt Q6ZN16); details: MAP3K15, 1 μM; read-out: % control
T1 sequence (Q6ZN16 1-1313): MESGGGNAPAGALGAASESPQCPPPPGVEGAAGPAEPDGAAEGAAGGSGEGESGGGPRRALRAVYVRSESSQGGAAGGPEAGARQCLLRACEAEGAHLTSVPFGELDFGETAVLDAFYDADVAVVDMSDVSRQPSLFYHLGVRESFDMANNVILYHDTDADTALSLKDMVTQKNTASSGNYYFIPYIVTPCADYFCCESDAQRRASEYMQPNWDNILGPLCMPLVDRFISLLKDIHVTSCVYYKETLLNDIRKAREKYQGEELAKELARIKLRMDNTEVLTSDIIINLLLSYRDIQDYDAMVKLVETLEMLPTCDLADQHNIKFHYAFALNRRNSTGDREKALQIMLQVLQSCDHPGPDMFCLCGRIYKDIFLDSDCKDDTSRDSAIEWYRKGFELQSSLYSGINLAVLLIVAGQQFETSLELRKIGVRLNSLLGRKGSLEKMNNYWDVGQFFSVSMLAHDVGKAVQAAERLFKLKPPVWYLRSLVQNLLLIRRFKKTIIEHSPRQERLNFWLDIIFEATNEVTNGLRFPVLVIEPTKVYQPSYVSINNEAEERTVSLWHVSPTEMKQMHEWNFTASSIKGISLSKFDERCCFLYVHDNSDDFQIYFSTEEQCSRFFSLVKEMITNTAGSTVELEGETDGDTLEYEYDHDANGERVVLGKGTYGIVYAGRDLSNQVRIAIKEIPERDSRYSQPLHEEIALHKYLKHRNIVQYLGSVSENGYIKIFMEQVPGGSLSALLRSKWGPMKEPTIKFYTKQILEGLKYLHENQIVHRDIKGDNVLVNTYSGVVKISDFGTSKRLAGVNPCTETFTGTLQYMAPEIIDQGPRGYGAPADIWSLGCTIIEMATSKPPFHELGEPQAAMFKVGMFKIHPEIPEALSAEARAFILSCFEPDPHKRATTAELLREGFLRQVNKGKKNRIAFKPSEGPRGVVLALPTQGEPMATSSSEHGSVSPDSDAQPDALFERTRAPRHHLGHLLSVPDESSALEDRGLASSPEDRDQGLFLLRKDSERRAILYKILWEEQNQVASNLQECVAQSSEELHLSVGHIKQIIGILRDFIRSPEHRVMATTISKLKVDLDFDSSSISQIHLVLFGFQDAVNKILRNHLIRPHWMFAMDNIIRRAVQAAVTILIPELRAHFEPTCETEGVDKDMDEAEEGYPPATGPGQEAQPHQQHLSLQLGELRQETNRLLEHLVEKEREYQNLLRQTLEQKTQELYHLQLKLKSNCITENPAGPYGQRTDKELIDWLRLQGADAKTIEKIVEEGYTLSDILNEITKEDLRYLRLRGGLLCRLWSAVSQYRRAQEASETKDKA
Procedure, shortened: as §1

PRKG1 = target: T2, PRKG1 (Homo sapiens, UniProt Q13976); details: PRKG1, 1 μM; read-out: % control
T2 sequence (Q13976 1-671): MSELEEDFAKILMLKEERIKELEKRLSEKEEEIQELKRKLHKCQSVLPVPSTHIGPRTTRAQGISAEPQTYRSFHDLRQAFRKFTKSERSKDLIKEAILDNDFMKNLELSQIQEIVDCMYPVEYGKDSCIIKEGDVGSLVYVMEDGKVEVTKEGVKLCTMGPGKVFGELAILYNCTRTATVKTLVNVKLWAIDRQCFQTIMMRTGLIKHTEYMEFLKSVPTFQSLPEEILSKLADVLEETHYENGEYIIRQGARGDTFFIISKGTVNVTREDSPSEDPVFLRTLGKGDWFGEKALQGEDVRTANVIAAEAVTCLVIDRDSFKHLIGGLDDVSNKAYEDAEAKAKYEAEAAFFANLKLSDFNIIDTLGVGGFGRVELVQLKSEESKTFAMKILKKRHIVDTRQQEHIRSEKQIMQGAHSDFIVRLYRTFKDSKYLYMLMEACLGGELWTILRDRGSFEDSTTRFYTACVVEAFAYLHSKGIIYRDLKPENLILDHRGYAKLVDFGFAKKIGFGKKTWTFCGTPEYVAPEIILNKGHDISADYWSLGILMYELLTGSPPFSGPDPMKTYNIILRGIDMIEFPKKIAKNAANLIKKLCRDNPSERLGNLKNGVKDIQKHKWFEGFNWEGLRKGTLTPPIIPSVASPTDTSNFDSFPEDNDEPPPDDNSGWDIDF
Procedure, shortened: as §1

SGK2 = target: T3, SGK2 (Homo sapiens, UniProt Q9HBY8); details: SGK2, 1 μM; read-out: % control
T3 construct: purchased KinomeScan® (panel service)
T3 sequence (Q9HBY8 1-367): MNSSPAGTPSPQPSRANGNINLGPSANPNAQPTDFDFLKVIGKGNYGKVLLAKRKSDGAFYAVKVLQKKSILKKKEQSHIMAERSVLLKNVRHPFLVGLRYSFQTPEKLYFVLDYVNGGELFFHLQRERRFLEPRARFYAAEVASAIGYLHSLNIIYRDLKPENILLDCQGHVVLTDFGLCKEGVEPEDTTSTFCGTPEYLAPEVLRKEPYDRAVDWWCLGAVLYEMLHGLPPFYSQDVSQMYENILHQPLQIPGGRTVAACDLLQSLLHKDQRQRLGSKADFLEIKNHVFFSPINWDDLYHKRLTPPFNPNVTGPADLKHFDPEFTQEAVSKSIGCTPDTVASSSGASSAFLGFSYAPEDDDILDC
Procedure, shortened: as §1

TESK1 = TESK1 (Homo sapiens, UniProt Q15569); details: TESK1, 1 μM; read-out: % control
Procedure, shortened: as §1

Chain of EGFR(G719C) (P00533 25-1210 G719C): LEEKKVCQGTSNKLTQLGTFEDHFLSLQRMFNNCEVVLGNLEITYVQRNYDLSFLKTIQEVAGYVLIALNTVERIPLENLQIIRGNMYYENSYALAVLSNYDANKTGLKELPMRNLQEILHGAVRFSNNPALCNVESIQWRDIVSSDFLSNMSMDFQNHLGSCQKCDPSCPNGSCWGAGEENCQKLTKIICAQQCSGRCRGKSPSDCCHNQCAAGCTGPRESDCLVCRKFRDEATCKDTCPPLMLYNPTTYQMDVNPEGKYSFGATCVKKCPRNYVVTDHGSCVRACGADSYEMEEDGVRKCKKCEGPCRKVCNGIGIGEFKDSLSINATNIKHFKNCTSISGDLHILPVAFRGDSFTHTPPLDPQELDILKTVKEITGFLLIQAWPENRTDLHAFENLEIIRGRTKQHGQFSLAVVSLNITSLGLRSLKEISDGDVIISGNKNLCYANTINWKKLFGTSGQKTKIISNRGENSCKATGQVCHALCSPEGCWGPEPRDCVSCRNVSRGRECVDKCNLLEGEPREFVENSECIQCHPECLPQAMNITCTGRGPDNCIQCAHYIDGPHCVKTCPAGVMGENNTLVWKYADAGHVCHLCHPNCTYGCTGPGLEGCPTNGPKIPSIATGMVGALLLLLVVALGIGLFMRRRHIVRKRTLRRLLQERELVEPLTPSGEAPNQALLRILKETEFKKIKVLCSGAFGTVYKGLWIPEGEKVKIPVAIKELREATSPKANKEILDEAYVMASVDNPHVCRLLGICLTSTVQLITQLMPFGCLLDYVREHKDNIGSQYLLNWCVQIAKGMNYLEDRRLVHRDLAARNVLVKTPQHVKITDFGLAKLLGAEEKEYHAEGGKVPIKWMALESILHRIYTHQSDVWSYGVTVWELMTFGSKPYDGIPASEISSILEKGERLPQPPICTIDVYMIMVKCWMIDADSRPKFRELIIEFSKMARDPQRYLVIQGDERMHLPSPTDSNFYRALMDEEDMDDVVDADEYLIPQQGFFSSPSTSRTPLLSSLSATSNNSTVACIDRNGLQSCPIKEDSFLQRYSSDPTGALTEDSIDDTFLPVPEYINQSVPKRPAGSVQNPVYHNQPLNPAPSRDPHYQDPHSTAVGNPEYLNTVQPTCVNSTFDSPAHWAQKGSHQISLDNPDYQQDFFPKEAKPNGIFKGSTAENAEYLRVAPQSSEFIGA
Chain of HPK1 (Q92918 whole entry): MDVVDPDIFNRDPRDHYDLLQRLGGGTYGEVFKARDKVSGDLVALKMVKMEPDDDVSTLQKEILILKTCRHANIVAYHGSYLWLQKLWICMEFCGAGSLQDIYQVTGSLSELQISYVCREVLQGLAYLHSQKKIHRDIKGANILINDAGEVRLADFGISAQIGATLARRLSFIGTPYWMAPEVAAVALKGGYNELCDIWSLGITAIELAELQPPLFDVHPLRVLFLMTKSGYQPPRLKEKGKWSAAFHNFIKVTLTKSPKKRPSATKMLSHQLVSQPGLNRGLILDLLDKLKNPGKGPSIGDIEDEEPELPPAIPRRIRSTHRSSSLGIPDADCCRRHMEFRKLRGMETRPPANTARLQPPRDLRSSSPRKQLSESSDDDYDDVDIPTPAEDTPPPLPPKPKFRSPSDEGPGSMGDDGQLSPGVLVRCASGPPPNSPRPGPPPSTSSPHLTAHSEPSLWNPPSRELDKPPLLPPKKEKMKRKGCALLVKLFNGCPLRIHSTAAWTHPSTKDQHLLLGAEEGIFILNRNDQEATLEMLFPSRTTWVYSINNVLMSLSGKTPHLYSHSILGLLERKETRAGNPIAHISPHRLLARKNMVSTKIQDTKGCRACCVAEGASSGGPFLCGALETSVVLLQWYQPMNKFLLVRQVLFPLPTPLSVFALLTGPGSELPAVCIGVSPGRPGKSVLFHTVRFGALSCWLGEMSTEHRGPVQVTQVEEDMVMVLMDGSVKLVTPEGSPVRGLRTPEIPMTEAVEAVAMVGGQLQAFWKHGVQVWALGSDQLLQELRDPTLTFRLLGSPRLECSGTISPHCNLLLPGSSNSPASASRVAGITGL
Chain of TESK1 (Q15569 whole entry): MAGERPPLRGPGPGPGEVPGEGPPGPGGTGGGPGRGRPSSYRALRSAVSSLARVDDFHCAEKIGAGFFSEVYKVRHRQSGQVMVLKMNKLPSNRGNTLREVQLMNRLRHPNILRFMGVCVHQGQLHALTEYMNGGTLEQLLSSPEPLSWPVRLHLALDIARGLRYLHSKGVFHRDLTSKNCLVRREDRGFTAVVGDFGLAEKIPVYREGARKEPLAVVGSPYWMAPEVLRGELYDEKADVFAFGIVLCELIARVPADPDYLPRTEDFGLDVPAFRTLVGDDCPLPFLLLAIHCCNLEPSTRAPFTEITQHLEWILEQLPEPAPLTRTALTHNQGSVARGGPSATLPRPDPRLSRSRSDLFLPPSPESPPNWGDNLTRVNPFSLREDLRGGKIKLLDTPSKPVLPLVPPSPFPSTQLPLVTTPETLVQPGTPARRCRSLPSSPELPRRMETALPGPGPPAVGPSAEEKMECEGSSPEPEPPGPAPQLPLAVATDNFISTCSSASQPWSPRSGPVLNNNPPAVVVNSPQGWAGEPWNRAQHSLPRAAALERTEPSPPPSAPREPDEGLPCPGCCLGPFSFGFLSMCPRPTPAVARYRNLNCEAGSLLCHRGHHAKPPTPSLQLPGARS

Row | SMILES | remaining binding at 1 µM (EGFR(G719C)) | remaining binding at 1 µM (HPK1) | remaining binding at 1 µM (MAP3K15) | remaining binding at 1 µM (PRKG1) | remaining binding at 1 µM (SGK2) | remaining binding at 1 µM (TESK1)
1 | CNc1c(-c2cnn([C@H]3CCN(C(C)=O)C[C@@H]3F)c2)cnc2[nH]cc(Cl)c12 [Compound 77, 1-((3S,4S)-4-(4-(3-chloro-4-(methylamino)-1H-pyrrolo[2,3-b]pyridin-5-yl)-1H-pyrazol-1-yl)-3-fluoropiperidin-1-yl)ethan-1-one] | 91% | 6.7% | 1.4% | 100% | 43% | 89%
2 | O=C(c1ccc(-c2cnc3[nH]cc(Cl)c3c2NC2CCCC2)cc1)N1CCC(N2CCOCC2)CC1 [Compound 101, (4-(3-chloro-4-(cyclopentylamino)-1H-pyrrolo[2,3-b]pyridin-5-yl)phenyl)(4-morpholinopiperidin-1-yl)methanone] | 91% | 53% | 100% | 89% | 65% | 99%
3 | CNc1c(-c2ccc(C(=O)N3CCC(N4CCOCC4)CC3)cc2)cnc2[nH]cc(Cl)c12 [Compound 96, (4-(3-chloro-4-(methylamino)-1H-pyrrolo[2,3-b]pyridin-5-yl)phenyl)(4-morpholinopiperidin-1-yl)methanone] | 100% | 84% | 1.8% | 100% | 30% | 74%
